ChEMBL document CHEMBL5244209, “Antiplasmodial and antimalarial activities of quinolone derivatives: An overview” (Eur J Med Chem, 2018)
≈ marks a conversion by molar mass, not a printed value.

Legend:
Format in all cases: functional, organism-based
Plasmodium falciparum [1] = assay: Antiplasmodial activity against chloroquine-sensitive Plasmodium falciparum 3D7 infected in human erythrocyte incubated for 72 hrs by SYBR green I staining based fluorescence assay; conditions: 3D7, Erythrocyte
Plasmodium falciparum [2] = assay: Antiplasmodial activity against Plasmodium falciparum D6 infected in human Erythrocyte measured after 72 hrs by SYBR green fluorescence dye based microplate reader analysis
Plasmodium falciparum [3] = assay: Antiplasmodial activity against Plasmodium falciparum Tm90-C2B infected in human Erythrocyte measured after 72 hrs by SYBR green fluorescence dye based microplate reader analysis
Plasmodium falciparum [4] = assay: Antiplasmodial activity against Plasmodium falciparum Dd2 infected in human Erythrocyte measured after 72 hrs by SYBR green fluorescence dye based microplate reader analysis
Plasmodium falciparum [5] = assay: Antimalarial activity against Antimalarial activity against chloroquine-sensitive Plasmodium falciparum FCR-3
Plasmodium falciparum [6] = assay: Antimalarial activity against blood stage chloroquine-sensitive Plasmodium falciparum 3D7 infected in erythrocytes assessed as reduction in parasite growth preincubated for 72 hrs followed by addition of [3H]Hypoxanthine and measured after 24 hrs by liquid scintillation counting method; conditions: 3D7, Erythrocyte
Plasmodium yoelii yoelii = assay: Antimalarial activity against hepatic stage Plasmodium yoelii yoelii 265 BY for 48 hrs with media renew every 24 hrs
Plasmodium falciparum [7] = assay: Antimalarial activity against blood stage chloroquine-sensitive Plasmodium falciparum NF54-R infected in erythrocytes assessed as reduction in parasite growth preincubated for 72 hrs followed by addition of [3H]Hypoxanthine and measured after 24 hrs by liquid scintillation counting method; conditions: Erythrocyte

SMILES: C=CC1CC2CCC1CC2[C@H](OC(=O)CNC(=O)C1=CN(C2CC2)C2C=C(N3CCN(CC)CC3)C(F)=CC2C1=O)c1cccc2ccc(OC)cc12 (stereo partly specified)
- IC50 (Plasmodium falciparum [1]): 28 nM

SMILES: O=C1C(O)=C([C@H]2CC[C@H](c3ccc(Cl)cc3)CC2)C(=O)c2ccccc21 [ATOVAQUONE]
- IC50 (Plasmodium falciparum [2]): 0.3 nM
- IC50 (Plasmodium falciparum [3]): 5090 nM
- IC50 (Plasmodium falciparum [4]): 0.5 nM

SMILES: Cn1cc(C(=O)N/N=C/c2ccncc2)c(=O)c2cc(F)ccc21
- IC50 (Plasmodium falciparum [5]): > 100000 nM

SMILES: COc1c(N2CCNC(C)C2)c(F)cc2c(=O)c(C(=O)O)cn(C3CC3)c12 (stereo unspecified) [GATIFLOXACIN]
- IC50 (Plasmodium falciparum [6]): 34.8 µg/mL (≈ 92.7 µM)
- IC50 (Plasmodium yoelii yoelii): > 100 µg/mL
- IC50 (Plasmodium falciparum [7]): 10.9 µg/mL (≈ 29 µM)

SMILES: CCCCCc1c(C)[nH]c2cc(OC)ccc2c1=O
- IC50 (Plasmodium falciparum [2]): 8 nM
- IC50 (Plasmodium falciparum [3]): 52 nM
- IC50 (Plasmodium falciparum [4]): 12 nM

SMILES: C=CC1CC2CCC1CC2[C@H](OC(=O)CNC(=O)C1=CN(CC)C2C=C(C)C=CC2C1=O)c1cccc2ccc(OC)cc12 (stereo partly specified)
- IC50 (Plasmodium falciparum [1]): 46 nM

SMILES: C=CC1CC2CCC1CC2[C@H](OC(=O)CNC(=O)C1=CN2C3C(=C(N4CCN(C)CC4)C(F)=CC3C1=O)OC[C@@H]2C)c1cccc2ccc(OC)cc12 (stereo partly specified)
- IC50 (Plasmodium falciparum [1]): 12 nM

SMILES: CCCCCCCc1c(C)[nH]c2cc(O)ccc2c1=O
- IC50 (Plasmodium falciparum [2]): 759 nM
- IC50 (Plasmodium falciparum [3]): 824 nM
- IC50 (Plasmodium falciparum [4]): 805 nM

SMILES: CCCCCCCc1c(C)nc2cc(OC)ccc2c1O
- IC50 (Plasmodium falciparum [2]): 4 nM
- IC50 (Plasmodium falciparum [3]): 11 nM
- IC50 (Plasmodium falciparum [4]): 3 nM

SMILES: CCn1nc(C(=O)O)c(=O)c2cc3c(cc21)OCO3 [CINOXACIN]
- IC50 (Plasmodium falciparum [6]): 118 µg/mL (≈ 451 µM)
- IC50 (Plasmodium yoelii yoelii): 36.3 µg/mL (≈ 138 µM)
- IC50 (Plasmodium falciparum [7]): 28.5 µg/mL (≈ 109 µM)

SMILES: CCn1cc(C(=O)O)c(=O)c2cc3c(cc21)OCO3 [OXOLINIC ACID]
- IC50 (Plasmodium falciparum [1]): > 10000 nM
- IC50 (Plasmodium falciparum [6]): 130 µg/mL (≈ 496 µM)
- IC50 (Plasmodium yoelii yoelii): > 100 µg/mL
- IC50 (Plasmodium falciparum [7]): 42.2 µg/mL (≈ 162 µM)

SMILES: C[C@@H]1CN(c2c(F)c(N)c3c(=O)c(C(=O)O)cn(C4CC4)c3c2F)C[C@H](C)N1 [SPARFLOXACIN]
- IC50 (Plasmodium falciparum [6]): 143 µg/mL (≈ 364 µM)
- IC50 (Plasmodium yoelii yoelii): 53 µg/mL (≈ 135 µM)
- IC50 (Plasmodium falciparum [7]): 73.9 µg/mL (≈ 188 µM)

SMILES: C=CC1CC2CCC1CC2[C@H](OC(=O)[C@H](Cc1ccccc1)NC(=O)C1=CN2C3C(=C(N4CCN(C)CC4)C(F)=CC3C1=O)OC[C@@H]2C)c1cccc2ccc(OC)cc12 (stereo partly specified)
- IC50 (Plasmodium falciparum [1]): 48 nM

SMILES: CCCCc1c(C)[nH]c2cc(OC)ccc2c1=O
- IC50 (Plasmodium falciparum [2]): 29 nM
- IC50 (Plasmodium falciparum [3]): 92 nM
- IC50 (Plasmodium falciparum [4]): 29 nM

SMILES: CN1CCN(c2c(F)cc3c(=O)c(C(=O)O)cn4c3c2OCN4C)CC1 [MARBOFLOXACIN]
- IC50 (Plasmodium falciparum [6]): 30.8 µg/mL (≈ 85 µM)
- IC50 (Plasmodium yoelii yoelii): > 100 µg/mL
- IC50 (Plasmodium falciparum [7]): 21.6 µg/mL (≈ 59.6 µM)

SMILES: CC1CN(c2cc3c(cc2F)c(=O)c(C(=O)O)cn3-c2ccc(F)cc2F)CCN1 (stereo unspecified) [TEMAFLOXACIN]
- IC50 (Plasmodium falciparum [6]): 34.9 µg/mL (≈ 83.6 µM)
- IC50 (Plasmodium yoelii yoelii): 72.2 µg/mL (≈ 173 µM)
- IC50 (Plasmodium falciparum [7]): 14.1 µg/mL (≈ 33.8 µM)

SMILES: CC1CCc2cc(F)cc3c(=O)c(C(=O)O)cn1c23 (stereo unspecified) [FLUMEQUINE]
- IC50 (Plasmodium falciparum [6]): 38.3 µg/mL (≈ 147 µM)
- IC50 (Plasmodium yoelii yoelii): > 100 µg/mL
- IC50 (Plasmodium falciparum [7]): 14.1 µg/mL (≈ 54 µM)

SMILES: Cn1cc(C(=O)N/N=C/c2cccnc2)c(=O)c2cc(F)ccc21
- IC50 (Plasmodium falciparum [5]): > 100000 nM

SMILES: Nc1ccc2c(=O)c3ccc(OCCCCCC(F)(F)F)cc3[nH]c2c1
- IC50 (Plasmodium falciparum [2]): 0.02 nM
- IC50 (Plasmodium falciparum [3]): 78 nM
- IC50 (Plasmodium falciparum [4]): 0.02 nM

SMILES: C=CC1CC2CCC1CC2[C@H](OC(=O)[C@H](C)NC(=O)C1=CN(CC)C2C=C3OCOC3=CC2C1=O)c1cccc2ccc(OC)cc12 (stereo partly specified)
- IC50 (Plasmodium falciparum [1]): 29 nM

SMILES: C=C[C@H]1CN2CC[C@H]1C[C@H]2[C@H](O)c1ccnc2ccc(OC)cc12 [QUININE]
- IC50 (Plasmodium falciparum [1]): 18 nM
- IC50 (Plasmodium falciparum [5]): 110 nM

SMILES: COc1ccc2c(=O)c(CCCCCCCCCCC(F)(F)F)c(C)[nH]c2c1
- IC50 (Plasmodium falciparum [2]): 1 nM
- IC50 (Plasmodium falciparum [3]): 5 nM
- IC50 (Plasmodium falciparum [4]): 1 nM

SMILES: Cn1cc(C(=O)N/N=C/c2cccnc2)c(=O)c2cc(C(F)(F)F)ccc21
- IC50 (Plasmodium falciparum [5]): > 100000 nM

SMILES: COc1c(N2C[C@@H]3CCCN[C@@H]3C2)c(F)cc2c(=O)c(C(=O)O)cn(C3CC3)c12 [MOXIFLOXACIN]
- IC50 (Plasmodium falciparum [6]): 44.8 µg/mL (≈ 112 µM)
- IC50 (Plasmodium yoelii yoelii): > 100 µg/mL
- IC50 (Plasmodium falciparum [7]): 18 µg/mL (≈ 44.8 µM)
